Laboratory results from patent publication US11584765B2 (priority 2017, dated 2023).

Tested on: C57BL/6 mice
Experiment: animal or person
Assay type: in vivo
Conditions: Mus musculus, sc, 0.5 h, s.c. administration, 30 min, 55° C. water, read-out: ED50 (mg/kg) at 30 min on C57BL/6 mice in Warm-water Tail-flick Test

| SMILES | ED50 [mg/kg] |
| --- | --- |
| CCOC[C@]1(CCc2ccsc2)CCN(C(C)(C)c2ccc(C)nc2)C1 [Compound 352, (R)-5-(2-(3-(ethoxymethyl)-3-(2-(thiophen-3-yl)ethyl)pyrrolidin-1-yl)propan-2-yl)-2-methylpyridine] | < 10 |
| CCOC[C@@]1(CCc2cccs2)CCN(C(C)(C)c2ccc(C)nc2)C1 [Compound 353, (S)-5-(2-(3-(ethoxymethyl)-3-(2-(thiophen-2-yl)ethyl)pyrrolidin-1-yl)propan-2-yl)-2-methylpyridine] | < 10 |
| CCOC[C@@]1(CCc2csc(C)c2)CCN(C(C)(C)c2ccc(C)nc2)C1 [Compound 354, (S)-5-(2-(3-(ethoxymethyl)-3-(2-(5-methylthiophen-3-yl)ethyl)pyrrolidin-1-yl)propan-2-yl)-2-methylpyridine] | < 10 |
| CCOC[C@@]1(CCc2cc(C)cs2)CCN(C(C)(C)c2ccc(C)nc2)C1 [Compound 355, (S)-5-(2-(3-(ethoxymethyl)-3-(2-(4-methylthiophen-2-yl)ethyl)pyrrolidin-1-yl)propan-2-yl)-2-methylpyridine] | < 10 |
| CCOC[C@@]1(CCc2ccsc2)CCN(C(C)(C)c2ccc(C)nc2)C1 [Compound 356, (S)-5-(2-(3-(ethoxymethyl)-3-(2-(thiophen-3-yl)ethyl)pyrrolidin-1-yl)propan-2-yl)-2-methylpyridine] | < 10 |
| CCOCC1(CCc2cnccn2)CCN(C(C)c2ccc(C)nc2)C1.Cl (centres unmarked) [Compound 357, 2-(2-(3-(ethoxymethyl)-1-(1-(6-methylpyridin-3-yl)ethyl)pyrrolidin-3-yl)ethyl)pyrazine HCl] | < 10 |
| CCOCC1(CCc2nccn2C)CCN(C(C)c2ccc(C)nc2)C1 (centres unmarked) [Compound 358, 5-(1-(3-(ethoxymethyl)-3-(2-(1-methyl-1H-imidazol-2-yl)ethyl)pyrrolidin-1-yl)ethyl)-2-methylpyridine] | > 10 |
| CCOC[C@@]1(CCc2ccccn2)CCN(C(C)(C)c2ccc(C)nc2)C1 [Compound 359, (S)-5-(2-(3-(ethoxymethyl)-3-(2-(pyridin-2-yl)ethyl)pyrrolidin-1-yl)propan-2-yl)-2-methylpyridine] | < 10 |
| CCOC[C@@]1(CCc2ncccn2)CCN(C(C)(C)c2ccc(C)nc2)C1 [Compound 360, (S)-2-(2-(3-(ethoxymethyl)-1-(2-(6-methylpyridin-3-yl)propan-2-yl)pyrrolidin-3-yl)ethyl)pyrimidine] | < 10 |
| CCOC[C@@]1(CCc2ccnc(OC)c2)CCN(C(C)(C)c2ccc(C)nc2)C1.Cl [Compound 361, (S)-4-(2-(3-(ethoxymethyl)-1-(2-(6-methylpyridin-3-yl)propan-2-yl)pyrrolidin-3-yl)ethyl)-2-methoxypyridine HCl] | < 10 |
| CCOC[C@@]1(CCc2cc3c(s2)CCC3)CCN(C(C)(C)c2ccc(C)nc2)C1.Cl [Compound 362, (S)-5-(2-(3-(2-(5,6-dihydro-4H-cyclopenta[b]thiophen-2-yl)ethyl)-3-(ethoxy-methyl)pyrrolidin-1-yl)propan-2-yl)-2-methylpyridine HCl] | < 10 |
| CCOC[C@@]1(CCc2nccs2)CCN(C(C)(C)c2ccc(C)nc2)C1 [Compound 363, (S)-2-(2-(3-(ethoxymethyl)-1-(2-(6-methylpyridin-3-yl)propan-2-yl)pyrrolidin-3-yl)ethyl)thiazole] | < 10 |
| CCOC[C@@]1(CCc2ccc(F)cc2)CCN(C(C)(C)c2ccc(C)nc2)C1 [Compound 364, (S)-5-(2-(3-(ethoxymethyl)-3-(4-fluoro-phenethyl)pyrrolidin-1-yl)propan-2-yl)-2-methylpyridine] | < 10 |
| CCOC[C@@]1(CCc2ccc(F)s2)CCN(C(C)(C)c2ccc(C)nc2)C1 [Compound 365, (S)-5-(2-(3-(ethoxymethyl)-3-(2-(5-fluorothiophen-2-yl)ethyl)pyrrolidin-1-yl)propan-2-yl)-2-methylpyridine] | < 10 |
| CCOC[C@@]1(CCc2ccccc2)CCN(C(C)(C)c2ccc(C)nc2)C1 [Compound 366, (S)-5-(2-(3-(ethoxymethyl)-3-phenethylpyrrolidin-1-yl)propan-2-yl)-2-methylpyridine] | < 10 |
| CCOC[C@@]1(CCc2cc[nH]c(=O)c2)CCN(C(C)(C)c2ccc(C)nc2)C1.Cl [Compound 367, (S)-4-(2-(3-(ethoxymethyl)-1-(2-(6-methylpyridin-3-yl)propan-2-yl)pyrrolidin-3-yl)ethyl)pyridin-2(1H)-one HCl] | < 10 |
| Cc1ccc(C(C)(C)N2CC[C@@](CO)(CCc3cc[nH]c(=O)c3)C2)cn1.Cl [Compound 368, (S)-4-(2-(3-(hydroxymethyl)-1-(2-(6-methylpyridin-3-yl)propan-2-yl)pyrrolidin-3-yl)ethyl)pyridin-2(1H)-one HCl] | < 10 |
| COc1cc(CC[C@]2(CO)CCN(C(C)(C)c3ccc(C)nc3)C2)ccn1.Cl [Compound 369, (S)-(3-(2-(2-methoxypyridin-4-yl)ethyl)-1-(2-(6-methylpyridin-3-yl)propan-2-yl)pyrrolidin-3-yl)methanol HCl] | < 10 |
| CCOC[C@@]1(CCc2ccc(OC)nc2)CCN(C(C)(C)c2ccc(C)nc2)C1.Cl [Compound 370, (S)-5-(2-(3-(ethoxymethyl)-1-(2-(6-methylpyridin-3-yl)propan-2-yl)pyrrolidin-3-yl)ethyl)-2-methoxypyridine HCl] | < 10 |

| SMILES | ED50 [mg/kg] |
| --- | --- |
| CCOC[C@@]1(CCc2cccnc2)CCN(C(C)(C)c2ccc(C)nc2)C1 [Compound 371, (S)-5-(2-(3-(ethoxymethyl)-3-(2-(pyridin-3-yl)ethyl)pyrrolidin-1-yl)propan-2-yl)-2-methylpyridine] | < 10 |
| CCOC[C@@]1(CCc2ccc(F)cn2)CCN(C(C)(C)c2ccc(C)nc2)C1 [Compound 372, (S)-2-(2-(3-(ethoxymethyl)-1-(2-(6-methylpyridin-3-yl)propan-2-yl)pyrrolidin-3-yl)ethyl)-5-fluoropyridine] | < 10 |
| CCOC[C@@]1(CCc2ccc(C)s2)CCN(C(C)(C)c2ccc(C)nc2)C1 [Compound 373, (S)-5-(2-(3-(ethoxymethyl)-3-(2-(5-methylthiophen-2-yl)ethyl)pyrrolidin-1-yl)propan-2-yl)-2-methylpyridine] | < 10 |
| CCOCC1(CCc2cc(C)sc2C)CCN(C2(c3ccc(C)nc3)CC2)C1 (centres unmarked) [Compound 374, 5-(1-(3-(2-(2,5-dimethylthiophen-3-yl)ethyl)-3-(ethoxy-methyl)pyrrolidin-1-yl)cyclopropyl)-2-methylpyridine] | < 10 |
| CCOC[C@@]1(CCc2nccc(=O)[nH]2)CCN(C(C)(C)c2ccc(C)nc2)C1 [Compound 375, (S)-2-(2-(3-(ethoxymethyl)-1-(2-(6-methylpyridin-3-yl)propan-2-yl)pyrrolidin-3-yl)ethyl)pyrimidin-4(3H)-one] | < 10 |
| CCOC[C@@]1(CCc2ccc(=O)[nH]c2)CCN(C(C)(C)c2ccc(C)nc2)C1.Cl [Compound 376] | < 10 |
| CCOC[C@@]1(CCc2nccc(OC)n2)CCN(C(C)(C)c2ccc(C)nc2)C1.Cl [Compound 377, (S)-2-(2-(3-(ethoxymethyl)-1-(2-(6-methylpyridin-3-yl)propan-2-yl)pyrrolidin-3-yl)ethyl)-4-methoxypyrimidine HCl] | < 10 |
| CCOC[C@@]1(CCc2cccs2)CCN(C(C)c2cnn(C)c2C)C1 (stereo partly drawn) [Compound 378, 4-(1-((S)-3-(ethoxymethyl)-3-(2-(thiophen-2-yl)ethyl)pyrrolidin-1-yl)ethyl)-1,5-dimethyl-1H-pyrazole] | < 10 |
| CCOC[C@@]1(CCc2cccs2)CCN(C2(c3ccc(C)nc3)CC2)C1 [Compound 379, (S)-5-(1-(3-(ethoxymethyl)-3-(2-(thiophen-2-yl)ethyl)pyrrolidin-1-yl)cyclopropyl)-2-methylpyridine] | < 10 |
| CCOC[C@@]1(CCc2ccc(F)cn2)CCN(C(=O)c2ccc(C)nc2)C1 [Compound 380, (S)-(3-(ethoxymethyl)-3-(2-(5-fluoropyridin-2-yl)ethyl)pyrrolidin-1-yl)(6-methylpyridin-3-yl)methanone] | > 10 |
| COC[C@@]1(CCc2csc(C)c2)CCN(C(=O)c2ccc(C)nc2)C1 [Compound 381, (S)-(3-(methoxymethyl)-3-(2-(5-methylthiophen-3-yl)ethyl)pyrrolidin-1-yl)(6-methylpyridin-3-yl)methanone] | > 10 |
| CCOC[C@@]1(CCc2nncn2C)CCN(C(=O)c2ccc(C)nc2)C1 [Compound 382] | > 10 |
| COC[C@@]1(CCc2csc(C)c2)CCN(C(C)(C)c2ccc(C)nc2)C1 [Compound 383, (S)-5-(2-(3-(methoxymethyl)-3-(2-(5-methylthiophen-3-yl)ethyl)pyrrolidin-1-yl)propan-2-yl)-2-methylpyridine] | < 10 |
| CCOC[C@@]1(CCc2ccsc2)CCN(Cc2cnn(C)c2)C1.Cl [Compound 384, (S)-4-((3-(ethoxymethyl)-3-(2-(thiophen-3-yl)ethyl)pyrrolidin-1-yl)methyl)-1-methyl-1H-pyrazole HCl] | < 10 |
| CCOC[C@@]1(CCc2cscc2C)CCN(Cc2cccnc2)C1 [Compound 385, (S)-3-((3-(ethoxymethyl)-3-(2-(4-methylthiophen-3-yl)ethyl)pyrrolidin-1-yl)methyl)pyridine] | < 10 |
| CCOC[C@@]1(CCc2cccs2)CCN(C(C)(C)c2cnn(C)c2)C1.Cl [Compound 386, (S)-4-(2-(3-(ethoxymethyl)-3-(2-(thiophen-2-yl)ethyl)pyrrolidin-1-yl)propan-2-yl)-1-methyl-1H-pyrazole HCl] | < 10 |
| CCOC[C@@]1(CCc2ccsc2)CCN(C(C)c2cccnc2)C1 (stereo partly drawn) [Compound 387, 3-(1-((S)-3-(ethoxymethyl)-3-(2-(thiophen-3-yl)ethyl)pyrrolidin-1-yl)ethyl)pyridine] | < 10 |
| CC(C)OC[C@@]1(CCc2cccs2)CCN(Cc2cccnc2)C1 [Compound 388, (S)-3-((3-(isopropoxy-methyl)-3-(2-(thiophen-2-yl)ethyl)pyrrolidin-1-yl)methyl)pyridine] | < 10 |
| COC[C@@]1(CCc2cccs2)CCN(Cc2cccnc2)C1 [Compound 389, (S)-3-((3-(methoxymethyl)-3-(2-(thiophen-2-yl)ethyl)pyrrolidin-1-yl)methyl)pyridine] | < 10 |
